From US8466153B2, “Piperidinylamino-pyridazines and their use as fast dissociating dopamine 2 receptor antagonists” (Janssen Pharmaceutica N.V., priority 2006, dated 2013) come the findings set out here.

The target in series [1] is T1, human D2L receptor (Homo sapiens, UniProt P14416).
T1 construct: expressed in transfected cells
As to the kind of experiment: Fast dissociation (indirect [3H]spiperone filter assay). It counts as binding. The note with it: compound at 4 times its IC50 pre-incubated 1 h at 25° C.; [3H]spiperone 1 nM on filter for 5 minutes. How it is done:
Compounds were first screened for their D2 affinity in a binding assay using [^3H]spiperone and human D2L receptor cell membranes.
Immediately after, the vacuum was released. 0.4 ml of pre-warmed buffer (25° C.) containing 1 nM [^3H]spiperone was added on the filter for 5 minutes. The incubation was stopped by initiating the vacuum and immediate rinsing with 2×5 ml of ice-cold buffer. The filter-bound radioactivity was measured in a liquid scintillation spectrometer. The principle of the assay is based on the assumption that the faster a compound dissociates from the D2 receptor, the faster [^3H]spiperone binds to the D2 receptor.

The target of series [2] is T2, human Dopamine D2L receptor (Homo sapiens, UniProt P14416).
T2 construct: expressed in transfected cells; host or cells: CHO cells
Put plainly: In vitro binding affinity for human D2L receptor ([3H]spiperone competition). Particulars: membranes of human D2L receptor-transfected CHO cells, 30 min, 37° C. The text has this: In order to find antipsychotic compounds active against positive symptoms and having an improved safety profile (low EPS incidence and no metabolic disorders), we have screened for compounds selectively interacting with the dopamine D2 receptor and dissociating fast from this receptor. Compounds were first screened for their D2 affinity in a binding assay using [^3H]spiperone and human D2L receptor cell membranes.
Frozen membranes of human Dopamine D2L receptor-transfected CHO cells were thawed, briefly homogenised using an Ultra-Turrax T25 homogeniser and diluted in Tris-HCl assay buffer containing NaCl, CaCl2, MgCl2, KCl (50, 120, 2, 1, and 5 mM respectively, adjusted to pH 7.7 with HCl) to an appropriate protein concentration optimised for specific and non-specific binding. Radioligand [^3H]Spiperone (NEN, specific activity ˜70 Ci/mmol) was diluted in assay buffer at a concentration of 2 nmol/L. Prepared radioligand (50 μl), along with 50 μl of either the 10% DMSO control, Butaclamol (10^−6 mol/l final concentration), or compound of interest, was then incubated (30 min, 37° C.) with 400 μl of the prepared membrane solution. Membrane-bound activity was filtered through a Packard Filtermate harvester onto GF/B Unifilterplates and washed with ice-cold Tris-HCl buffer (50 mM; pH 7.7; 6×0.5 ml). Filters were allowed to dry before adding scintillation fluid and counting in a Topcount scintillation counter. Percentage specific bound and competition binding curves were calculated using S-Plus software (Insightful).

For series [3], the system named is Apomorphine-induced agitation, stereotypy in rats. As to the kind of experiment: Inhibition of the apomorphine induced agitation test in rats. It counts as in vivo. Particulars: Rattus norvegicus, 0.5 h, apomorphine 1.0 mg/kg i.v. at 30 min, male Wiga Wistar rats. The protocol:
Male Wiga Wistar rats (180-280 g) were administered test compound (sc: subcutaneously; po: orally; n=3 per dose; dose=0.16, 0.63 and 2.5 mg/kg) or solvent and then challenged with apomorphine (1.0 mg/kg, i.v.) at 30 min. The effects of the test compound on the behavioral changes were evaluated according to all-or-none criteria based on the distribution of results in a large series of control data obtained in solvent-pretreated rats.
Apomorphine (1.0 mg/kg, i.v.)-induced agitation, stereotypy (compulsive sniffing, licking, chewing), was scored every 5 min over the first hour after injection of apomorphine. The score system was: (3) pronounced, (2) moderate, (1) slight, and (0) absent. […] The table below gives the lowest active dose at which 3 out of 3 rats tested met one of the criteria for drug-induced inhibition of agitation.

Series [4] has as its system panel of more than 50 common G-protein coupled receptors (CEREP). As to the kind of experiment: Screen in a panel of more than 50 common G-protein coupled receptors (CEREP). The format is binding. Particulars: panel of more than 50 GPCRs. The text has this:
Selected compounds E15, E16, E17 and E18 were further screened in a panel of more than 50 common G-protein coupled receptors (CEREP) and found to have a clean profile, that is to have low affinity for the tested receptors.

[5] abbreviates: sc, subcutaneously, read-out: sc Dose: lowest active dose at which 3 out of 3 rats met a criterion for inhibition of agitation.
Setting [6] is: po, orally, read-out: po Dose: lowest active dose at which 3 out of 3 rats met a criterion for inhibition of agitation.

Read-outs that look alike come from different tables or passages of the source.

The term IC50 denotes the concentration that gives 50% inhibition. A low value points to inhibition by little substance. A word on the melting point: it is the temperature, or range, at which the solid turns liquid.

T1 sequence (P14416 whole entry): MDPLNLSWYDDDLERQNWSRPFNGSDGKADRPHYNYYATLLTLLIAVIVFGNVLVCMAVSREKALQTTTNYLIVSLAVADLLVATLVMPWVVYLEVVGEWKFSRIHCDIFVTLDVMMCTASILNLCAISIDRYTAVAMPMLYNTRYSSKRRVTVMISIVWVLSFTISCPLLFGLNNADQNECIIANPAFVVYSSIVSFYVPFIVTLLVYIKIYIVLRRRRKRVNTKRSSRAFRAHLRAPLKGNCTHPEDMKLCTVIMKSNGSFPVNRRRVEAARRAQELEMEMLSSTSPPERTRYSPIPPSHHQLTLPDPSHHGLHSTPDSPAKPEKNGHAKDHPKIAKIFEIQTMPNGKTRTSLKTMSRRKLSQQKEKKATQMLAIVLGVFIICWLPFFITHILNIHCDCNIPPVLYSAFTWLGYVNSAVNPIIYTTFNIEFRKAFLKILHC
T2 sequence (P14416 whole entry): as above

The compound `Cc1ccc(CN2CCC(Nc3ccc(C#N)nn3)CC2)cc1` [Example E6, 6-[1-(4-Methyl-benzyl)-piperidin-4-ylamino]-pyridazine-3-carbonitrile] registered a melting point of 191.62 °C. Besides, the “% Dissociation” value in series [1] is on record as 84%. In addition, the IC50 in series [2] is 0.955 µM. Besides, the minimal effective dose in series [3] (setting [5]) came out at 2.5 mg/kg.

As for `Cc1c(C#N)nnc(NC2CCN(Cc3cc(F)cc(F)c3)CC2)c1C` [Example E19, 6-[1-(3,5-Difluoro-benzyl)-piperidin-4-ylamino]-4,5-dimethyl-pyridazine-3-carbonitrile], the “% Dissociation” value in series [1] was determined as 83.66%. The IC50 in series [2] was 1.82 µM. In addition, the values for the minimal effective dose in series [3] (setting [6]) and in series [3] (setting [5]) were 2.5 mg/kg and 0.63 mg/kg, respectively.

In turn, `N#Cc1ccc(NC2CCN(Cc3ccc(Cl)cc3)CC2)nn1` [Example E3, 6-[1-(4-Chloro-benzyl)-piperidin-4-ylamino]-pyridazine-3-carbonitrile] came in with a melting point of 209.77 °C. Further, the “% Dissociation” value in series [1] is reported as 87%. In addition, in series [2], the IC50 was 1.05 µM. In series [3] (setting [5]), the minimal effective dose turned out to be 0.63 mg/kg.

For `N#Cc1ccc(NC2CCN(Cc3cc(F)cc(F)c3)CC2)nn1` [Example E15, 6-[1-(3,5-Difluoro-benzyl)-piperidin-4-ylamino]-pyridazine-3-carbonitrile], the melting point was found to be 187.9 °C. In addition, in series [4], the “affinity profile for the tested receptors” value (“affinity profile” below) is on record as “low affinity”. Further, the “% Dissociation” value in series [1] turned out to be 93.50%. The compound also had an IC50 in series [2] of 6.61 µM. In addition, the minimal effective dose in series [3] (setting [6]) is 1.25 mg/kg. Further, the minimal effective dose in series [3] (setting [5]) came out at 0.63 mg/kg.

On to `Cc1ccc(CN2CCC(Nc3ccc(C#N)nn3)CC2)cc1F` [Example E4, 6-[1-(3-Fluoro-4-methyl-benzyl)-piperidin-4-ylamino]-pyridazine-3-carbonitrile], for which the melting point is 171.84 °C. Besides, the “% Dissociation” value in series [1] is reported as 82%. In addition, the IC50 in series [2] is 0.407 µM. Besides, the minimal effective dose in series [3] (setting [5]) was determined as 0.16 mg/kg.

On to `N#Cc1ccc(NC2CCN(Cc3cccc(C(F)(F)F)c3)CC2)nn1` [Example E16, 6-[1-(3-Trifluoromethyl-benzyl)-piperidin-4-ylamino]-pyridazine-3-carbonitrile], for which the melting point is 170.3 °C. Also, the “affinity profile” value in series [4] is listed as “low affinity”. The “% Dissociation” value in series [1] is reported as 79.50%. For the same compound, the IC50 in series [2] was 1.41 µM. Further, in series [3] (setting [6]), the minimal effective dose turned out to be 0.63 mg/kg. The minimal effective dose in series [3] (setting [5]) turned out to be 0.63 mg/kg.

`N#Cc1ccc(NC2CCN(Cc3cc(F)c(F)c(F)c3)CC2)nn1` [Example E18, 6-[1-(3,4,5-Trifluoro-benzyl)-piperidin-4-ylamino]-pyridazine-3-carbonitrile] had a melting point of 185 °C. Further, the “affinity profile” value in series [4] is “low affinity”. In series [1], the “% Dissociation” value worked out at 95%. The IC50 in series [2] was 5.75 µM. For the same compound, the minimal effective dose in series [3] (setting [6]) is 1.25 mg/kg. For the same compound, the minimal effective dose in series [3] (setting [5]) came to 0.63 mg/kg.

Compound `N#Cc1ccc(NC2CCN(Cc3cc(F)cc(C(F)(F)F)c3)CC2)nn1` [Example E17, 6-[1-(3-Fluoro-5-trifluoromethyl-benzyl)-piperidin-4-ylamino]-pyridazine-3-carbonitrile] registered a melting point of 151.4 °C. For the same compound, the “affinity profile” value in series [4] is reported as “low affinity”. For the same compound, the “% Dissociation” value in series [1] stood at 73%. Also, the IC50 in series [2] is 3.02 µM. Further, in series [3] (setting [6]), the minimal effective dose is 1.25 mg/kg. Besides, the minimal effective dose in series [3] (setting [5]) worked out at 0.63 mg/kg.

`N#Cc1ccc(NC2CCN(Cc3ccc(C(F)(F)F)c(F)c3)CC2)nn1` [Example E8, 6-[1-(3-Fluoro-4-trifluoromethyl-benzyl)-piperidin-4-ylamino]-pyridazine-3-carbonitrile] returned a melting point of 178.6 °C. Also, in series [1], the “% Dissociation” value stood at 89.50%. The compound further showed an IC50 in series [2] of 7.59 µM. For the same compound, the minimal effective dose in series [3] (setting [6]) came to 2.5 mg/kg. Moreover, the minimal effective dose in series [3] (setting [5]) came out at 2.5 mg/kg.

Consider `N#Cc1ccc(NC2CCN(Cc3ccc(C(F)(F)F)cc3)CC2)nn1` [Example E7, 6-[1-(4-Trifluoromethyl-benzyl)-piperidin-4-ylamino]-pyridazine-3-carbonitrile], for which the melting point stood at 243.1 °C. Also, in series [1], the “% Dissociation” value worked out at 93.50%. Further, in series [2], the IC50 was > 10 µM. The minimal effective dose in series [3] (setting [6]) was 2.5 mg/kg. The minimal effective dose in series [3] (setting [5]) stood at 0.63 mg/kg.
